How the values were obtained:
[1] = Cytotoxicity against human HeLa cells assessed as reduction in cell viability after 3 days by ATPlite assay
in vitro = conditions: human, HeLa cells
Description: Selectivity index, ratio of CC50 for human HeLa cells to EC50 GFP-fused RSV 224 fusion protein infected in human HeLa cells

[2] = Metabolic stability in human liver microsomes assessed as compound metabolized after 15 mins; format: ADME, Microsome; conditions: read-out: Drug metabolism
Cytochrome P450 3A4 = Cytochrome P450 3A4 (Homo sapiens, UniProt P08684); test: Time-dependent inhibition of CYP3A4 in human liver microsomes using testosterone as substrate; format: ADME
[3] = Protein binding in human plasma assessed as unbound fraction; format: ADME, cell-free

Cytochrome P450 3A4, sequence (P08684 whole entry): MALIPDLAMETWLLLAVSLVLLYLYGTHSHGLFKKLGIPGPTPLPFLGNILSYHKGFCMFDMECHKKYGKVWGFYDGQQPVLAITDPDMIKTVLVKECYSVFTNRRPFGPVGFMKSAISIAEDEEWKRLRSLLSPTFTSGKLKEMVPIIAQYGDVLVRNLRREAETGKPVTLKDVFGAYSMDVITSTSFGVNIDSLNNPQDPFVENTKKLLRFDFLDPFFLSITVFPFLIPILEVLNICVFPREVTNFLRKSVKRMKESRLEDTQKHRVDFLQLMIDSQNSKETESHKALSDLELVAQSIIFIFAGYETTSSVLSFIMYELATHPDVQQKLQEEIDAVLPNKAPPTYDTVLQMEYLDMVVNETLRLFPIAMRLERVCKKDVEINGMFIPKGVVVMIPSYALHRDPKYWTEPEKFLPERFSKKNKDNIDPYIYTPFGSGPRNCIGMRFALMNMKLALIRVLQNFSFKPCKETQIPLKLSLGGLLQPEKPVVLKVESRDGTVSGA

| SMILES | metabolised at 0.25 h [2] [%] | TDI (Cytochrome P450 3A4) | fraction unbound [3] | CC50 at 72 h [1] [µM] | selectivity ratio (in vitro) |
| --- | --- | --- | --- | --- | --- |
| CS(=O)(=O)CCCn1c(Cn2c(=O)n(C3CC3)c3ccncc32)cc2ccccc21 |  |  |  | > 100 | > 10000 |
| O=c1n(Cc2nc3ncccc3n2CCCCO)c2cnccc2n1C1CC1 |  |  |  | > 100 | > 10000 |
| CS(=O)(=O)CCCn1c(Cn2c(=O)n(C3CC3)c3ccncc32)nc2nc(Cl)ccc21 | 0 |  |  | > 50 |  |
| O=c1n(Cc2cc3cc(Cl)ccc3n2CCCN2CCOCC2)c2cnccc2n1C1CC1 | 99 |  |  | > 50 |  |
| CC(C)CCn1c(Cn2c(=O)n(C3CC3)c3ccncc32)nc2nc(Cl)ccc21 | 7 |  |  | > 50 |  |
| CS(=O)(=O)CCCn1c(Cn2c(=O)n(C3CC3)c3ccncc32)cc2cc(Br)ccc21 |  |  |  | > 50 |  |
| CC(C)CCn1c(Cn2c(=O)n(C3CC3)c3ccncc32)cc2cnccc21 | 44 |  |  | > 50 |  |
| CC(C)CCn1c(Cn2c(=O)n(C3CC3)c3ccncc32)cc2ccccc21 |  |  | 0.006 | > 100 | 181 |
| O=c1n(Cc2nc3nc(Cl)ccc3n2CCCCF)c2cnccc2n1C1CC1 | 0 |  |  | > 50 |  |
| O=C(O)CCCn1c(Cn2c(=O)n(C3CC3)c3ccncc32)cc2cc(Cl)ccc21 |  |  |  | > 50 |  |
| CC(C)CCn1c(Cn2c(=O)n(C3CC3)c3ccncc32)nc2cnccc21 |  |  |  | > 100 | > 3000 |
| COc1ccc2c(c1)cc(Cn1c(=O)n(C3CC3)c3ccncc31)n2CCCCO |  |  |  | > 50 |  |
| CC(C)(O)CCCn1c(Cn2c(=O)n(C3CC3)c3ccncc32)nc2nc(Cl)ccc21 | 41 |  |  | > 50 |  |
| O=c1n(Cc2cc3ccncc3n2CCCCO)c2cnccc2n1C1CC1 |  |  |  | > 100 | > 76 |
| N#CCCCn1c(Cn2c(=O)n(C3CC3)c3ccncc32)nc2nc(Cl)ccc21 | 0 |  |  | > 50 |  |
| CS(=O)(=O)CCCn1c(Cn2c(=O)n(C3CC3)c3ccncc32)cc2cc(F)ccc21 |  |  |  | > 50 |  |

| SMILES | metabolised at 0.25 h [2] [%] | TDI (Cytochrome P450 3A4) | fraction unbound [3] | CC50 at 72 h [1] [µM] | selectivity ratio (in vitro) |
| --- | --- | --- | --- | --- | --- |
| NC(=O)CCCn1c(Cn2c(=O)n(C3CC3)c3ccncc32)cc2cc(Cl)ccc21 |  |  |  | > 50 |  |
| O=c1n(Cc2cc3cnccc3n2CCCCF)c2cnccc2n1C1CC1 | 15 |  |  | > 50 |  |
| CS(=O)(=O)CCCn1c(Cn2c(=O)n(C3CC3)c3ccncc32)cc2cc(C(F)(F)F)ccc21 |  |  |  | > 50 |  |
| O=c1n(Cc2nc3cnccc3n2CCCCO)c2cnccc2n1C1CC1 |  |  |  | > 100 | > 18000 |
| CS(=O)(=O)CCCn1c(Cn2c(=O)[nH]c3ccncc32)cc2cc(Cl)ccc21 | 9 | Not Active |  | > 50 |  |
| O=c1n(Cc2cc3cc(Br)ccc3n2CCCCO)c2cnccc2n1C1CC1 |  |  |  | > 50 |  |
| CC(C)CCn1c(Cn2c(=O)n(C3CC3)c3ccncc32)nc2ncccc21 |  |  |  | > 100 | > 12000 |
| O=c1n(Cc2nc3nc(Cl)ccc3n2CCCCO)c2cnccc2n1C1CC1 | 0 |  |  | > 50 |  |
| CS(=O)(=O)CCCn1c(Cn2c(=O)n(C3CC3)c3ccncc32)cc2cnccc21 | 32 |  |  | > 50 |  |
| CC(C)CCn1c(Cn2c(=O)n(C3CC3)c3ccncc32)nc2ccncc21 |  |  |  | > 100 | > 987 |
| CC(C)CCn1c(Cn2c(=O)n(C3CC3)c3ccncc32)nc2cccnc21 |  |  |  | > 100 | > 80 |
| O=c1n(Cc2cc3ncccc3n2CCCCO)c2cnccc2n1C1CC1 |  |  |  | > 100 | > 613 |
| O=c1n(Cc2cc3cnccc3n2CCCCO)c2cnccc2n1C1CC1 |  |  |  | > 100 | > 57000 |
| CC(C)CCn1c(Cn2c(=O)n(C3CC3)c3ccncc32)cc2cccnc21 |  |  |  | > 100 |  |
| O=c1n(Cc2cc3cc(F)ccc3n2CCCCO)c2cnccc2n1C1CC1 |  |  |  | > 50 |  |
| O=c1n(Cc2cc3ccc(Cl)cc3n2CCCCO)c2cnccc2n1C1CC1 |  |  |  | > 50 |  |

More lines, main results first:

| metabolised at 0.25 h [2] [%] | TDI (Cytochrome P450 3A4) | fraction unbound [3] | SMILES | CC50 at 72 h [1] [µM] | selectivity ratio (in vitro) |
| --- | --- | --- | --- | --- | --- |
| 36 |  |  | Cc1ccc(-n2c(=O)n(Cc3cc4cc(Cl)ccc4n3CCCC#N)c3cnccc32)cc1 | > 50 |  |
| 56 |  |  | CC(C)(O)CCCn1c(Cn2c(=O)n(C3CC3)c3ccncc32)cc2cc(Cl)ccc21 | > 50 |  |
| 34 |  |  | N#CCCCn1c(Cn2c(=O)n(-c3ncccn3)c3ccncc32)cc2cc(Cl)ccc21 | > 50 |  |
| 27 |  |  | N#CCCCn1c(Cn2c(=O)n(-c3ccncc3F)c3ccncc32)cc2cc(Cl)ccc21 | > 50 |  |
| 97 | Not Active |  | CC(C)n1c(=O)n(Cc2cc3cc(Cl)ccc3n2CCCS(C)(=O)=O)c2cnccc21 | > 50 |  |
| 37 |  |  | O=c1n(Cc2cc3cc(Cl)ccc3n2CCCCF)c2cnccc2n1C1CC1 | > 50 |  |
| 17 |  |  | COc1ccc(-n2c(=O)n(Cc3cc4cc(Cl)ccc4n3CCCC#N)c3cnccc32)c(F)c1 | > 50 |  |
| 15 |  |  | CS(=O)(=O)CCCn1c(Cn2c(=O)n(C3CN(S(C)(=O)=O)C3)c3ccncc32)cc2cc(Cl)ccc21 | > 50 |  |
| 49 |  |  | Cn1ccc(-n2c(=O)n(Cc3cc4cc(Cl)ccc4n3CCCC#N)c3cnccc32)n1 | > 50 |  |
| 0 |  |  | N#CCCCn1c(Cn2c(=O)n(-c3ccc(OC(F)(F)F)cc3)c3ccncc32)cc2cc(Cl)ccc21 | > 50 |  |
| 9 |  |  | N#CCCCn1c(Cn2c(=O)n(-c3ccc(C(=O)O)cc3)c3ccncc32)cc2cc(Cl)ccc21 | > 50 |  |
| 98 | Not Active |  | CS(=O)(=O)CCCn1c(Cn2c(=O)n(CC3CC3)c3ccncc32)cc2cc(Cl)ccc21 | > 50 |  |
| 66 |  |  | CS(=O)(=O)CCCn1c(Cn2c(=O)n(CC#N)c3ccncc32)cc2cc(Cl)ccc21 | > 50 |  |
| 28 |  |  | CC(C)(C)n1c(=O)n(Cc2cc3cc(Cl)ccc3n2CCCS(C)(=O)=O)c2cnccc21 | > 50 |  |
| 29 | Not Active |  | CC1(n2c(=O)n(Cc3cc4cc(Cl)ccc4n3CCCS(C)(=O)=O)c3cnccc32)CC1 | > 50 |  |
| 52 |  |  | CS(=O)(=O)CCCn1c(Cn2c(=O)n(C3COC3)c3ccncc32)cc2cc(Cl)ccc21 | > 50 |  |
| 24 |  |  | N#CCCCn1c(Cn2c(=O)n(-c3ccc(C(=O)NC4CC4)cc3)c3ccncc32)cc2cc(Cl)ccc21 | > 50 |  |
| 33 |  |  | COc1ccc(-n2c(=O)n(Cc3cc4cc(Cl)ccc4n3CCCC#N)c3cnccc32)cc1C | > 50 |  |
| 14 |  |  | CS(=O)(=O)CCCn1c(Cn2c(=O)n(C3CNC3)c3ccncc32)cc2cc(Cl)ccc21 | > 50 |  |
| 45 |  |  | N#CCCCn1c(Cn2c(=O)n(-c3ncco3)c3ccncc32)cc2cc(Cl)ccc21 | > 50 |  |
| 36 |  |  | COc1ccc(-n2c(=O)n(Cc3cc4cc(Cl)ccc4n3CCCC#N)c3cnccc32)c(C)c1 | > 50 |  |
| 2 |  |  | CC(n1c(=O)n(Cc2cc3cc(Cl)ccc3n2CCCS(C)(=O)=O)c2cnccc21)C(F)(F)F (stereo not drawn) | > 50 |  |
| 60 |  |  | N#CCCCn1c(Cn2c(=O)n(-c3ccncn3)c3ccncc32)cc2cc(Cl)ccc21 | > 50 |  |
| 37 |  |  | N=C(CCCn1c(Cn2c(=O)n(C3CC3)c3ccncc32)cc2cc(Cl)ccc21)NO | > 50 |  |
| 49 |  |  | O=c1n(Cc2cc3cc(Cl)ccc3n2CCCCO)c2cnccc2n1C1CC1 | > 50 |  |
| 23 |  |  | O=c1n(Cc2cc3cc(Cl)ccc3n2CCCC(F)(F)F)c2cnccc2n1C1CC1 | > 50 |  |
| 23 |  |  | N#CCCCn1c(Cn2c(=O)n(-c3ccncc3)c3ccncc32)cc2cc(Cl)ccc21 | > 50 |  |
